Test results as given in patent US20240165216A1, “NOVEL R[…] OF MYC[…] AND USE OF SAME” (priority 2021, published 2024).

Key:
MIF = assay: MC38 model, co-administration with cisplatin: anti-MIF antibody titer and serum cytokines; format: in vivo, mouse; details: versus control group; FIG. 33
Description: Thus, it was considered that the production of anti-MIF antibody increased, and it was expected that the production of serum cytokines, which is a measure of the increase in immune activity in the body, would also be increased.

[1] = test system: immune cells secreting IFN-γ and TNF-α; assay: MC38 model, co-administration with cisplatin: flow cytometry of cancer tissue; format: in vivo, mouse; details: versus control group; FIG. 34c

SMILES: N.N.[Cl][Pt][Cl] [cisplatin]
- serum cytokine (IFN-γ and TNF-α) levels (MIF): significantly increased
- TCRγδ T cells secreting IFN-γ in cancer tissue [1]: increased
